From ChEMBL document CHEMBL4651402, “Screening of ~5500 FDA-approved drugs and clinical candidates for anti-SARS-CoV-2 activity” (2021)

Test system: SARS-CoV-2
Experiment: microbe, parasite or virus in culture
Settings: Severe acute respiratory syndrome coronavirus 2, Vero C1008, 48 h

Compound: O=c1cc(-c2ccc(O)c(O)c2)oc2cc(O)cc(O)c12 [LUTEOLIN]
- IC50: > 20 µM
- IC50 (read-out: pIC50 (converted)): > 20 µM

Compound: N[C@@]1(C(=O)O)CS(=O)(=O)[C@H]2[C@H](C(=O)O)[C@H]21 [LY404039]
- IC50: > 20 µM
- IC50 (read-out: pIC50 (converted)): > 20 µM

Compound: Cc1nc(N2CCN(C)CC2)c2nc(-c3ccccc3Cl)n(C3CCOCC3)c2n1 [LY2828360]
- IC50: > 20 µM
- IC50 (read-out: pIC50 (converted)): > 20 µM

Compound: O[C@H]1[C@H]2c3cc4c(cc3CN3CCC(=C[C@@H]1O)[C@H]23)OCO4 [LYCORINE]
- IC50: > 20 µM
- IC50 (read-out: pIC50 (converted)): > 20 µM

Compound: NCc1ccc(S(N)(=O)=O)cc1 [MAFENIDE]
- IC50: > 20 µM
- IC50 (read-out: pIC50 (converted)): > 20 µM

Compound: CCOC(=O)CC(SP(=S)(OC)OC)C(=O)OCC (configuration not stated) [MALATHION]
- IC50: > 20 µM
- IC50 (read-out: pIC50 (converted)): > 20 µM

Compound: O=C(O)/C=C\C(=O)O [MALEIC ACID]
- IC50: > 20 µM
- IC50 (read-out: pIC50 (converted)): > 20 µM

Compound: O=C(O)CC(O)C(=O)O (configuration not stated) [MALIC ACID]
- IC50: > 20 µM
- IC50 (read-out: pIC50 (converted)): > 20 µM

Compound: O=C(O)CC(=O)O [MALONIC ACID]
- IC50: > 20 µM
- IC50 (read-out: pIC50 (converted)): > 20 µM

Compound: Cc1occc(=O)c1O [MALTOL]
- IC50: > 20 µM
- IC50 (read-out: pIC50 (converted)): > 20 µM

Compound: OC[C@H]1O[C@H](O[C@H]2[C@H](O)[C@@H](O)[C@H](O)O[C@@H]2CO)[C@H](O)[C@@H](O)[C@@H]1O [MALTOSE]
- IC50: > 20 µM
- IC50 (read-out: pIC50 (converted)): > 20 µM

Compound: COC(=O)C(O)c1ccccc1 (configuration not stated) [MANDELIC ACID, METHYL ESTER]
- IC50: > 20 µM
- IC50 (read-out: pIC50 (converted)): > 20 µM

Compound: O=c1c2cc(O)c(O)cc2oc2cc(O)c([C@@H]3O[C@H](CO)[C@@H](O)[C@H](O)[C@H]3O)c(O)c12 [MANGIFERIN]
- IC50: > 20 µM
- IC50 (read-out: pIC50 (converted)): > 20 µM

Compound: COC(=O)C1=C(C)NC(C)=C(C(=O)OCCN2CCN(C(c3ccccc3)c3ccccc3)CC2)C1c1cccc([N+](=O)[O-])c1 (configuration not stated) [MANIDIPINE 6300]
- IC50: > 20 µM
- IC50 (read-out: pIC50 (converted)): > 20 µM

Compound: Cc1nnc(C(C)C)n1[C@H]1C[C@H]2CC[C@@H](C1)N2CC[C@H](NC(=O)C1CCC(F)(F)CC1)c1ccccc1 [MARAVIROC]
- IC50: > 20 µM
- IC50 (read-out: pIC50 (converted)): > 20 µM

Compound: CN1CCN(c2c(F)cc3c(=O)c(C(=O)O)cn4c3c2OCN4C)CC1 [MARBOFLOXACIN]
- IC50: > 20 µM
- IC50 (read-out: pIC50 (converted)): > 20 µM

Compound: Cn1cc(-c2ccncc2)c(-c2ccc(OCc3ccc4ccccc4n3)cc2)n1 [MARDEPODECT]
- IC50: > 20 µM
- IC50 (read-out: pIC50 (converted)): > 20 µM

Compound: CC(C)Nc1nc2cc(Cl)c(Cl)cc2n1[C@H]1O[C@@H](CO)[C@H](O)[C@@H]1O [MARIBAVIR]
- IC50: > 50.1 µM
- IC50 (read-out: pIC50 (converted)): > 50.1 µM

Compound: C=CC(=O)N[C@@H]1CN(c2nc(Nc3cn(C)nc3OC)c3ncn(C)c3n2)C[C@H]1F [MAVELERTINIB]
- IC50: > 20 µM
- IC50 (read-out: pIC50 (converted)): > 20 µM

Compound: CC(C)Oc1ccccc1N1CCN(Cc2cccc(C(=O)N3CCCCC3)c2)CC1 [MAZAPERTINE]
- IC50: > 20 µM
- IC50 (read-out: pIC50 (converted)): > 20 µM

Compound: OC1(c2ccc(Cl)cc2)c2ccccc2C2=NCCN21 (configuration not stated) [MAZINDOL]
- IC50: > 20 µM
- IC50 (read-out: pIC50 (converted)): > 20 µM

Compound: CC(C)Cc1sc(N)nc1-c1ccc(P(=O)(O)O)o1 [MB-05032]
- IC50: > 20 µM
- IC50 (read-out: pIC50 (converted)): > 20 µM

Compound: COC(=O)Nc1nc2cc(C(=O)c3ccccc3)ccc2[nH]1 [MEBENDAZOLE]
- IC50: > 20 µM
- IC50 (read-out: pIC50 (converted)): > 20 µM

Compound: CCN(CCCCOC(=O)c1ccc(OC)c(OC)c1)C(C)Cc1ccc(OC)cc1 (configuration not stated) [MEBEVERINE]
- IC50: > 20 µM
- IC50 (read-out: pIC50 (converted)): > 20 µM

Compound: CN1CCc2c(c3ccccc3n2Cc2ccccc2)C1 [MEBHYDROLIN]
- IC50: > 20 µM
- IC50 (read-out: pIC50 (converted)): > 20 µM

Compound: CN1C(=O)N(C)C2C1N(C)C(=O)N2C (configuration not stated) [MEBICAR]
- IC50: > 20 µM
- IC50 (read-out: pIC50 (converted)): > 20 µM

Compound: COc1ccc2[nH]cc(CCN(C)C)c2c1 [MEBUFOTENIN]
- IC50: > 20 µM
- IC50 (read-out: pIC50 (converted)): > 20 µM

Compound: CNC1(C)C2CCC(C2)C1(C)C (configuration not stated) [MECAMYLAMINE]
- IC50: > 20 µM
- IC50 (read-out: pIC50 (converted)): > 20 µM

Compound: Cc1cccc(CN2CCN(C(c3ccccc3)c3ccc(Cl)cc3)CC2)c1 (configuration not stated) [MECLIZINE]
- IC50: > 20 µM
- IC50 (read-out: pIC50 (converted)): > 20 µM

Compound: C=C1c2c(Cl)ccc(O)c2C(=O)C2=C(O)[C@]3(O)C(=O)C(C(N)=O)=C(O)[C@@H](N(C)C)[C@@H]3[C@@H](O)[C@H]12 [MECLOCYCLINE]
- IC50: > 20 µM
- IC50 (read-out: pIC50 (converted)): > 20 µM

Compound: Cc1ccc(Cl)c(Nc2ccccc2C(=O)O)c1Cl [MECLOFENAMIC ACID]
- IC50: > 20 µM
- IC50 (read-out: pIC50 (converted)): > 20 µM

Compound: CN(C)CCOC(=O)COc1ccc(Cl)cc1 [MECLOFENOXATE]
- IC50: > 20 µM
- IC50 (read-out: pIC50 (converted)): > 20 µM

Compound: Cc1nc2ccccc2c(=O)n1-c1ccccc1Cl [MECLOQUALONE]
- IC50: > 20 µM
- IC50 (read-out: pIC50 (converted)): > 20 µM

Compound: CNC(=O)NC(O)C(Cl)(Cl)Cl (configuration not stated) [MECLORALUREA]
- IC50: > 20 µM
- IC50 (read-out: pIC50 (converted)): > 20 µM

Compound: COC(=O)C(N)CS (configuration not stated) [MECYSTEINE]
- IC50: > 20 µM
- IC50 (read-out: pIC50 (converted)): > 20 µM

Compound: Cc1cccc(C(C)c2c[nH]cn2)c1C (configuration not stated) [MEDETOMIDINE]
- IC50: > 20 µM
- IC50 (read-out: pIC50 (converted)): > 20 µM

Compound: CC(=O)[C@H]1CC[C@H]2[C@@H]3C[C@H](C)C4=CC(=O)CC[C@]4(C)[C@H]3[C@@H](O)C[C@]12C [MEDRYSONE]
- IC50: > 20 µM
- IC50 (read-out: pIC50 (converted)): > 20 µM

Compound: Cc1cccc(Nc2ccccc2C(=O)O)c1C [MEFENAMIC ACID]
- IC50: > 20 µM
- IC50 (read-out: pIC50 (converted)): > 20 µM

Compound: CCN(CC)CCNC(=O)COc1ccc(OC)cc1 [MEFEXAMIDE]
- IC50: > 20 µM
- IC50 (read-out: pIC50 (converted)): > 20 µM

Compound: CN(CC1(C)CCCO1)S(=O)(=O)c1ccc(Cl)c(S(N)(=O)=O)c1 (configuration not stated) [MEFRUSIDE]
- IC50: > 20 µM
- IC50 (read-out: pIC50 (converted)): > 20 µM

Compound: CC(=O)O[C@]1(C(C)=O)CC[C@H]2[C@@H]3C=C(C)C4=CC(=O)CC[C@]4(C)[C@H]3CC[C@@]21C [MEGESTROL ACETATE]
- IC50: > 20 µM
- IC50 (read-out: pIC50 (converted)): > 20 µM

Compound: CNC[C@H](O)[C@@H](O)[C@H](O)[C@H](O)CO [MEGLUMINE]
- IC50: > 20 µM
- IC50 (read-out: pIC50 (converted)): > 20 µM

Compound: CC(O)(CC(=O)O)CC(=O)O [MEGLUTOL]
- IC50: > 20 µM
- IC50 (read-out: pIC50 (converted)): > 20 µM

Compound: COc1ccc2[nH]cc(CCNC(C)=O)c2c1 [MELATONIN]
- IC50: > 20 µM
- IC50 (read-out: pIC50 (converted)): > 20 µM

Compound: CCCCC/C=C/C/C=C/CCCCCCCC(=O)NC(C)c1ccccc1 (configuration not stated) [MELINAMIDE]
- IC50: > 20 µM
- IC50 (read-out: pIC50 (converted)): > 20 µM

Compound: Cc1cnc(NC(=O)C2=C(O)c3ccccc3S(=O)(=O)N2C)s1 [MELOXICAM]
- IC50: > 20 µM
- IC50 (read-out: pIC50 (converted)): > 20 µM

Compound: CC1CCN(CCCC(=O)c2ccc(F)cc2)CC1 [MELPERONE]
- IC50: > 20 µM
- IC50 (read-out: pIC50 (converted)): > 20 µM

Compound: CC12CC3CC(C)(C1)CC(N)(C3)C2 [MEMANTINE]
- IC50: > 20 µM
- IC50 (read-out: pIC50 (converted)): > 20 µM

Compound: CC1=CC(=O)c2ccccc2C1=O [MENADIONE]
- IC50: > 20 µM
- IC50 (read-out: pIC50 (converted)): > 20 µM

Compound: CC(C)=CCC/C(C)=C/CC1=C(C)C(=O)c2ccccc2C1=O [MENAQUINONE-2]
- IC50: > 20 µM
- IC50 (read-out: pIC50 (converted)): > 20 µM

Compound: CC(C)=CCC/C(C)=C/CC/C(C)=C/CC/C(C)=C/CC1=C(C)C(=O)c2ccccc2C1=O [MENATETRENONE]
- IC50: > 20 µM
- IC50 (read-out: pIC50 (converted)): > 20 µM

Compound: CC1CCC(C(C)C)C(O)C1 (configuration not stated) [MENTHOL]
- IC50: > 20 µM
- IC50 (read-out: pIC50 (converted)): > 20 µM

Compound: C/N=C(/NC)NCc1ccc(OC)cc1 [MEOBENTINE]
- IC50: > 20 µM
- IC50 (read-out: pIC50 (converted)): > 20 µM

Compound: CN1CCCC(CN2c3ccccc3Sc3ccccc32)C1 (configuration not stated) [MEPAZINE]
- IC50: > 20 µM
- IC50 (read-out: pIC50 (converted)): > 20 µM

Compound: C[N+]1(C)CCCC(OC(=O)C(O)(c2ccccc2)c2ccccc2)C1 (configuration not stated) [MEPENZOLATE]
- IC50: > 20 µM
- IC50 (read-out: pIC50 (converted)): > 20 µM

Compound: CCOC(=O)C1(c2ccccc2)CCN(C)CC1 [MEPERIDINE]
- IC50: > 20 µM
- IC50 (read-out: pIC50 (converted)): > 20 µM
